Legend:
[1] = tested on: human T-cell leukemia cell line Jurkat cell; assay: Growth of Jurkat cells, live cell count by trypan blue staining; assay type: cell-based; details: for growth inhibitory activity of isolated components on Jurkat cells: 10, 25 and 50 μM, cells counted after 24, 48, 72 hours (FIG. 7); for IC50: Homo sapiens, Jurkat, isolated components, FIG. 7, read-out: IC50 in the inhibition of the growth of the Jurkat cells
Description: A human T-cell leukemia cell line Jurkat cell was obtained from the Independent Administrative Institution RIKEN BioResource Center (Tsukuba-shi, Ibaraki-ken). The cell was cultured in a RPMI 1640 medium (Wako Pure Chemical Industries, Ltd., Osaka-shi, Osaka-fu) containing 10% fetal bovine serum (Thermo Fisher Scientifics, K.K., MA, USA), 100 U/mL penicillin, and 100 μg/mL streptomycin (both from Life Technologies, Carlsbad, Calif., USA) at 37° C. in an environment of 95% air and 5% CO2.
The Jurkat cells were adjusted to 1×10^5 cells/mL and seeded in a 24-well multi-well plate (Thermo Fisher Scientifics, K.K.) by 500 μL per well. […] At 24, 48, and 72 hours after the sample treatment, the cells were stained with trypan blue (Life Technologies) to count live cells using a hemacytometer.
These components were examined for the growth inhibitory effect on the Jurkat cells. The Jurkat cells were treated with each component at final concentrations of 10, 25, and 50 μM and the number of cells was counted after 24, 48, and 72 hours.

[2] = tested on: Cyclin A; assay: Western blot of Cyclin A protein expression in Jurkat cells in S phase; assay type: cell-based, human; details: Phytol(+) vs Phytol(−), n=5, p<0.01 (FIG. 9)
From the text: Next, the growth inhibition of the Jurkat cells caused by phytol and lutein was further investigated. As shown in FIG. 6 and FIG. 7, the growth inhibition of the Jurkat cells was caused by the induction of the cell cycle arrest in the S phase during cell division. Thus, it was further investigated how phytol induced the cell cycle arrest in the S phase. Specifically, protein expression of a molecule that controls the S phase of the cell cycle was examined by a Western blot method. […] Results of Cyclin A and β-Actin are shown with a phytol treatment (Phytol(+)) and without a phytol treatment (Phytol(−)). Further, in FIG. 9(b), the result of the Western blot shown in FIG. 9(a) was subjected to background correction using an image analysis software imageJ and then subjected to a densitometry analysis to obtain a ratio of a band density of Cyclin A relative to that of β-Actin. In evaluating data, a value of Phytol(+) was calculated by taking a value of Phytol(−) as 1 and represented as a mean±standard deviation (n=5). Comparison between Phytol(−) and Phytol(+) was tested by a Tukey-Kramer method (p<0.01).

[3] = tested on: human normal lymphoid cell; assay: Effect on growth of human normal lymphoid cell (trypan blue count); assay type: cell-based; details: stated with reference to FIG. 8

SMILES	growth inhibitory activity of isolated components on Jurkat cells [1]	IC50 [1] [µM]	expression of Cyclin A (band relative to β-Actin) [2]	growth inhibitory effect on the normal cell [3]
C/C(=C\CO)CCC[C@H](C)CCC[C@H](C)CCCC(C)C [phytol, Phytol]	significant growth inhibitory activity	12.8	suppressed	does not exhibit the growth inhibitory effect
CC1=C[C@H](O)CC(C)(C)[C@H]1/C=C/C(C)=C/C=C/C(C)=C/C=C/C=C(C)/C=C/C=C(C)/C=C/C1=C(C)C[C@@H](O)CC1(C)C [lutein]	significant growth inhibitory activity	22.6		
CC(C)C/C=C/[C@@H](C)[C@H]1CC[C@H]2[C@@H]3CC=C4C[C@@H](O)CC[C@]4(C)[C@H]3CC[C@]12C [22-dehydrocholesterol]	hardly inhibited the growth of the Jurkat cells			
